The structures appear in SMILES notation. “Also recorded” adds a separate entry of the source.

The test system of data set [1] is bone marrow. The experiment in a line: Bone marrow inhibition in the skin allograft test. In kind it is in vivo, Fischer rats. Conditions: i.p., 10 or 20 days. An excerpt: (§1) In the next place, the present inventors conducted a skin graft test with rats. In accordance with the method of Denham et al. (Denham et al., International Archives of Allergy and Applied Immunology, vol. 62, pp. 443-458, 1980), the skin of the tail of SHR rats was peeled and allografted onto Fischer rats. […] The inhibitory action of spergualin on tissue rejections is expected to manifest itself not only in skin transplantation but also in the transplantation of such organs as the kidney, heart, spleen, lung, liver, bone marrow and endocrine organs.
(§2) Skin sections (5×10 mm) were peeled from the tails of SHR rats (female, 10 wk old) and transplanted to Fischer rats (female, 10 wk old) on the back. Varying doses of spergualin were administered intraperitoneally for a consecutive period of 10 or 20 days starting on the day following the transplantation. Complete necrosis of the graft was used as a measure of rejection and the inhibitory action of the compound was evaluated in terms of how long the rejection was postponed. […] The longer the period of administration, the greater the inhibitory action.

Data set [2] deals with mice. Conditions: cited from earlier work.
Data set [3] deals with Skin allograft rejection (SHR to Fischer rats). The experiment in a line: Inhibition of rejection of skin allograft. In kind it is in vivo.
Excerpt: as §1, §2

Consider `N=C(N)NCCCCC(O)CC(=O)NC(O)C(=O)NCCCCNCCCN` (stereo not drawn) [spergualin, Spergualin], for which the “inhibition of the bone marrow” value in data set [1] is “No inhibition of the bone marrow was observed; also recorded: No such side effects as bone marrow inhibition were observed”. Also, the cumulative toxicity entry in data set [2] is given as “No cumulative toxicity was observed”. In data set [2] (gradual intravenous administration of 80 mg/kg), the lethality result is given as “not lethal”. Also, the LD50 result in data set [2] (intraperitoneal) is on record as “approximately 150 mg/kg”. Moreover, the “dose dependence of inhibitory action on skin allograft rejection” value in data set [3] (i.p., 10 or 20 days) was “dose-dependent”. For the same compound, the “inhibition of the rejection” value in data set [3] (throughout the administration period) is recorded as “Complete inhibition of the rejection”.

Values taken from patent US4778824A, “Method for suppressing a transplantation immunity and treating an allergic disease and an autoimmune disease” (Zaidan Hojin Biseibutsu Kagaku Kenkyu Kai, priority 1984, dated 1988).
